≈ marks a conversion by molar mass, not a printed value.
Key:
Bacteroides uniformis = experiment: Antimicrobial activity against Bacteroides uniformis by Wadsworth agar dilution method in presence of beta-lactamase inhibitor Sulbactam; format: functional
Desulfovibrio sp. = experiment: Antimicrobial activity against Desulfovibrio sp. by Wadsworth agar dilution method in presence of beta-lactamase inhibitor Sulbactam; format: functional
Fusobacterium nucleatum = experiment: Antimicrobial activity against Fusobacterium nucleatum by Wadsworth agar dilution method in presence of beta-lactamase inhibitor Sulbactam; format: functional
Fusobacterium mortiferum [1] = experiment: Antimicrobial activity against Fusobacterium mortiferum by Wadsworth agar dilution method; format: functional
Fusobacterium varium = experiment: Antimicrobial activity against Fusobacterium varium by Wadsworth agar dilution method in presence of beta-lactamase inhibitor Sulbactam; format: functional
Prevotella bivia = experiment: Antimicrobial activity against Prevotella bivia by Wadsworth agar dilution method in presence of beta-lactamase inhibitor Sulbactam; format: functional
Prevotella corporis = experiment: Antimicrobial activity against Prevotella corporis by Wadsworth agar dilution method in presence of beta-lactamase inhibitor Sulbactam; format: functional
Prevotella disiens = experiment: Antimicrobial activity against Prevotella disiens by Wadsworth agar dilution method in presence of beta-lactamase inhibitor Sulbactam; format: functional
[2] = system: Prevotella melaninogenica; experiment: Antimicrobial activity against Prevotella melaninogenica by Wadsworth agar dilution method in presence of beta-lactamase inhibitor Sulbactam; format: functional
Clostridium hathewayi = experiment: Antimicrobial activity against Clostridium hathewayi by Wadsworth agar dilution method in presence of beta-lactamase inhibitor Sulbactam; format: functional; details: Hungatella hathewayi
Clostridium perfringens = experiment: Antimicrobial activity against Clostridium perfringens by Wadsworth agar dilution method in presence of beta-lactamase inhibitor Sulbactam; format: functional
[3] = system: Clostridium aminobutyricum; experiment: Antimicrobial activity against Clostridium aminobutyricum by Wadsworth agar dilution method in presence of beta-lactamase inhibitor Sulbactam; format: functional
[4] = system: Paraclostridium bifermentans; experiment: Antimicrobial activity against Clostridium bifermentans by Wadsworth agar dilution method in presence of beta-lactamase inhibitor Sulbactam; format: functional
Clostridium butyricum = experiment: Antimicrobial activity against Clostridium butyricum by Wadsworth agar dilution method in presence of beta-lactamase inhibitor Sulbactam; format: functional
Clostridium glycolicum = experiment: Antimicrobial activity against Clostridium glycolicum by Wadsworth agar dilution method in presence of beta-lactamase inhibitor Sulbactam; format: functional; details: Terrisporobacter glycolicus
[5] = system: Clostridium lactatifermentans; experiment: Antimicrobial activity against Clostridium lactatifermentans by Wadsworth agar dilution method in presence of beta-lactamase inhibitor Sulbactam; format: functional; details: Anaerotignum lactatifermentans
[6] = system: Clostridium paraputrificum; experiment: Antimicrobial activity against Clostridium paraputrificum by Wadsworth agar dilution method in presence of beta-lactamase inhibitor Sulbactam; format: functional
Fusobacterium mortiferum [7] = experiment: Antimicrobial activity against Clostridium rectum by Wadsworth agar dilution method in presence of beta-lactamase inhibitor Sulbactam; format: functional
Clostridium scindens = experiment: Antimicrobial activity against Clostridium scindens by Wadsworth agar dilution method in presence of beta-lactamase inhibitor Sulbactam; format: functional
Clostridium sp. = experiment: Antimicrobial activity against Clostridium sp. by Wadsworth agar dilution method in presence of beta-lactamase inhibitor Sulbactam; format: functional
Clostridium tertium = experiment: Antimicrobial activity against Clostridium tertium by Wadsworth agar dilution method in presence of beta-lactamase inhibitor Sulbactam; format: functional
[8] = Antimicrobial activity against Bifidobacterium pseudocatenulatum by Wadsworth agar dilution method in presence of beta-lactamase inhibitor Sulbactam; format: functional
Eubacterium limosum = experiment: Antimicrobial activity against Eubacterium limosum by Wadsworth agar dilution method in presence of beta-lactamase inhibitor Sulbactam; format: functional
[9] = system: Lactiplantibacillus plantarum; experiment: Antimicrobial activity against Lactobacillus plantarum by Wadsworth agar dilution method in presence of beta-lactamase inhibitor Sulbactam; format: functional
[10] = system: Limosilactobacillus reuteri; experiment: Antimicrobial activity against Lactobacillus reuteri by Wadsworth agar dilution method in presence of beta-lactamase inhibitor Sulbactam; format: functional
[11] = system: Lacticaseibacillus rhamnosus; experiment: Antimicrobial activity against Lactobacillus rhamnosus by Wadsworth agar dilution method in presence of beta-lactamase inhibitor Sulbactam; format: functional
Cutibacterium acnes = experiment: Antimicrobial activity against Propionibacterium acnes by Wadsworth agar dilution method in presence of beta-lactamase inhibitor Sulbactam; format: functional
Propionibacterium avidum = experiment: Antimicrobial activity against Propionibacterium avidum by Wadsworth agar dilution method in presence of beta-lactamase inhibitor Sulbactam; format: functional; details: Cutibacterium avidum
[12] = system: Peptoniphilus asaccharolyticus; experiment: Antimicrobial activity against Peptoniphilus asaccharolyticus by Wadsworth agar dilution method in presence of beta-lactamase inhibitor Sulbactam; format: functional
Peptoniphilus harei = experiment: Antimicrobial activity against Peptoniphilus harei by Wadsworth agar dilution method in presence of beta-lactamase inhibitor Sulbactam; format: functional
[13] = system: Peptostreptococcus anaerobius; experiment: Antimicrobial activity against Peptostreptococcus anaerobius by Wadsworth agar dilution method in presence of beta-lactamase inhibitor Sulbactam; format: functional
Ruminococcus obeum = experiment: Antimicrobial activity against Ruminococcus obeum by Wadsworth agar dilution method in presence of beta-lactamase inhibitor Sulbactam; format: functional; details: Blautia obeum
Blautia producta = experiment: Antimicrobial activity against Ruminococcus productus by Wadsworth agar dilution method in presence of beta-lactamase inhibitor Sulbactam; format: functional
Ruminococcus torques = experiment: Antimicrobial activity against Ruminococcus torques by Wadsworth agar dilution method in presence of beta-lactamase inhibitor Sulbactam; format: functional; details: Mediterraneibacter torques
[14] = Drug level in stool of patient with traveler's diarrhea at 800 mg, po administered daily for 3 days; format: ADME, organism-based; details: human, in vivo, 72 h

Which MIC50 (Bacteroides uniformis) does the source give for `CC1(C)S[C@@H]2[C@H](NC(=O)[C@H](N)c3ccccc3)C(=O)N2[C@H]1C(=O)O` [AMPICILLIN] here?
The MIC50 was 2 µg/mL.

And the MIC90 (Bacteroides uniformis)?
The MIC90 was 16 µg/mL.

And the MIC50 (Desulfovibrio sp.)?
Its MIC50 is 4 µg/mL.

And the MIC90 (Desulfovibrio sp.)?
Its MIC90 is 32 µg/mL.

And the MIC50 (Fusobacterium nucleatum)?
The MIC50 was 0.25 µg/mL.

What about the MIC90 (Fusobacterium nucleatum) of the same compound?
The MIC90 was 0.25 µg/mL.

And the MIC50 (Fusobacterium mortiferum [1])?
The MIC50 was 1 µg/mL (≈ 2.86 µM).

And the MIC90 (Fusobacterium mortiferum [1])?
Its MIC90 is 4 µg/mL (≈ 11.4 µM).

What about the MIC50 (Fusobacterium varium) of the same compound?
The MIC50 was 1 µg/mL.

And the MIC90 (Fusobacterium varium)?
Its MIC90 is 4 µg/mL.

What about the MIC50 (Prevotella bivia) of the same compound?
Its MIC50 is 0.5 µg/mL.

And the MIC90 (Prevotella bivia)?
Its MIC90 is 4 µg/mL.

What about the MIC50 (Prevotella corporis) of the same compound?
The MIC50 was 0.5 µg/mL.

What about the MIC90 (Prevotella corporis) of the same compound?
Its MIC90 is 4 µg/mL.

And the MIC50 (Prevotella disiens)?
Its MIC50 is 0.5 µg/mL.

What about the MIC90 (Prevotella disiens) of the same compound?
Its MIC90 is 4 µg/mL.

What about the MIC50 [2] of the same compound?
The MIC50 was 0.5 µg/mL.

What about the MIC90 [2] of the same compound?
Its MIC90 is 4 µg/mL.

And the MIC50 (Clostridium hathewayi)?
The MIC50 was 2 µg/mL.

And the MIC90 (Clostridium hathewayi)?
The MIC90 was 2 µg/mL.

And the MIC50 (Clostridium perfringens)?
Its MIC50 is 0.25 µg/mL.

And the MIC90 (Clostridium perfringens)?
Its MIC90 is 0.25 µg/mL.

What about the MIC [3] of the same compound?
Its MIC is 0.25 µg/mL.

What about the MIC50 [3] of the same compound?
Its MIC50 is 0.25 µg/mL.

What about the MIC90 [3] of the same compound?
Its MIC90 is 1 µg/mL.

And the MIC [4]?
The MIC was 0.25 µg/mL.

What about the MIC50 [4] of the same compound?
Its MIC50 is 0.25 µg/mL.

And the MIC90 [4]?
Its MIC90 is 1 µg/mL.

What about the MIC (Clostridium butyricum) of the same compound?
The MIC was 0.25 µg/mL.

What about the MIC50 (Clostridium butyricum) of the same compound?
The MIC50 was 0.25 µg/mL.

And the MIC90 (Clostridium butyricum)?
Its MIC90 is 1 µg/mL.

What about the MIC (Clostridium glycolicum) of the same compound?
The MIC was 0.25 µg/mL.

What about the MIC50 (Clostridium glycolicum) of the same compound?
The MIC50 was 0.25 µg/mL.

And the MIC90 (Clostridium glycolicum)?
The MIC90 was 1 µg/mL.

What about the MIC [5] of the same compound?
Its MIC is 0.25 µg/mL.

And the MIC50 [5]?
Its MIC50 is 0.25 µg/mL.

And the MIC90 [5]?
Its MIC90 is 1 µg/mL.

And the MIC [6]?
The MIC was 0.25 µg/mL.

And the MIC50 [6]?
The MIC50 was 0.25 µg/mL.

And the MIC90 [6]?
Its MIC90 is 1 µg/mL.

And the MIC (Fusobacterium mortiferum [7])?
Its MIC is 0.25 µg/mL.

What about the MIC50 (Fusobacterium mortiferum [7]) of the same compound?
Its MIC50 is 0.25 µg/mL.

And the MIC90 (Fusobacterium mortiferum [7])?
The MIC90 was 1 µg/mL.

What about the MIC (Clostridium scindens) of the same compound?
The MIC was 0.25 µg/mL.

And the MIC50 (Clostridium scindens)?
The MIC50 was 0.25 µg/mL.

What about the MIC90 (Clostridium scindens) of the same compound?
The MIC90 was 1 µg/mL.

What about the MIC (Clostridium sp.) of the same compound?
Its MIC is 0.25 µg/mL.

And the MIC50 (Clostridium sp.)?
Its MIC50 is 0.25 µg/mL.

And the MIC90 (Clostridium sp.)?
Its MIC90 is 1 µg/mL.

What about the MIC (Clostridium tertium) of the same compound?
Its MIC is 0.25 µg/mL.

What about the MIC50 (Clostridium tertium) of the same compound?
The MIC50 was 0.25 µg/mL.

And the MIC90 (Clostridium tertium)?
Its MIC90 is 1 µg/mL.

And the MIC [8]?
Its MIC is 0.25 µg/mL.

What about the MIC50 [8] of the same compound?
The MIC50 was 0.25 µg/mL.

What about the MIC90 [8] of the same compound?
Its MIC90 is 2 µg/mL.

And the MIC (Eubacterium limosum)?
The MIC was 0.25 µg/mL.

What about the MIC50 (Eubacterium limosum) of the same compound?
Its MIC50 is 0.25 µg/mL.

What about the MIC90 (Eubacterium limosum) of the same compound?
Its MIC90 is 2 µg/mL.

What about the MIC [9] of the same compound?
The MIC was 0.25 µg/mL.

What about the MIC50 [9] of the same compound?
The MIC50 was 0.25 µg/mL.

What about the MIC90 [9] of the same compound?
The MIC90 was 2 µg/mL.

And the MIC [10]?
Its MIC is 0.25 µg/mL.

And the MIC50 [10]?
Its MIC50 is 0.25 µg/mL.

What about the MIC90 [10] of the same compound?
Its MIC90 is 2 µg/mL.

And the MIC [11]?
The MIC was 0.25 µg/mL.

And the MIC50 [11]?
Its MIC50 is 0.25 µg/mL.

What about the MIC90 [11] of the same compound?
The MIC90 was 2 µg/mL.

What about the MIC (Cutibacterium acnes) of the same compound?
The MIC was 0.25 µg/mL.

And the MIC50 (Cutibacterium acnes)?
The MIC50 was 0.25 µg/mL.

And the MIC90 (Cutibacterium acnes)?
Its MIC90 is 2 µg/mL.

What about the MIC (Propionibacterium avidum) of the same compound?
Its MIC is 0.25 µg/mL.

What about the MIC50 (Propionibacterium avidum) of the same compound?
Its MIC50 is 0.25 µg/mL.

And the MIC90 (Propionibacterium avidum)?
The MIC90 was 2 µg/mL.

And the MIC [12]?
Its MIC is 0.25 µg/mL.

And the MIC50 [12]?
Its MIC50 is 0.25 µg/mL.

What about the MIC90 [12] of the same compound?
The MIC90 was 2 µg/mL.

And the MIC (Peptoniphilus harei)?
The MIC was 0.25 µg/mL.

And the MIC50 (Peptoniphilus harei)?
Its MIC50 is 0.25 µg/mL.

What about the MIC90 (Peptoniphilus harei) of the same compound?
Its MIC90 is 2 µg/mL.

What about the MIC [13] of the same compound?
The MIC was 0.25 µg/mL.

What about the MIC50 [13] of the same compound?
Its MIC50 is 0.25 µg/mL.

And the MIC90 [13]?
The MIC90 was 2 µg/mL.

What about the MIC (Ruminococcus obeum) of the same compound?
The MIC was 0.25 µg/mL.

And the MIC50 (Ruminococcus obeum)?
Its MIC50 is 0.25 µg/mL.

And the MIC90 (Ruminococcus obeum)?
Its MIC90 is 2 µg/mL.

What about the MIC (Blautia producta) of the same compound?
The MIC was 0.25 µg/mL.

What about the MIC50 (Blautia producta) of the same compound?
The MIC50 was 0.25 µg/mL.

What about the MIC90 (Blautia producta) of the same compound?
Its MIC90 is 2 µg/mL.

What about the MIC (Ruminococcus torques) of the same compound?
The MIC was 0.25 µg/mL.

What about the MIC50 (Ruminococcus torques) of the same compound?
The MIC50 was 0.25 µg/mL.

What about the MIC90 (Ruminococcus torques) of the same compound?
Its MIC90 is 2 µg/mL.

Which concentration [14] does the source give for `CO[C@H]1/C=C/O[C@@]2(C)Oc3c(C)c(O)c4c(O)c(c5c(nc6cc(C)ccn65)c4c3C2=O)NC(=O)/C(C)=C\C=C\[C@H](C)[C@H](O)[C@@H](C)[C@@H](O)[C@@H](C)[C@H](OC(C)=O)[C@@H]1C` [RIFAXIMIN] here?
The concentration was 8000 µg/g.
